Data as given in patent US7772241B2, “Variolin derivatives and their use as antitumor agents” (Pharma Mar S.A., priority 2001, dated 2010).
Like-named read-outs stand apart in the source and are kept apart here.

Legend:
K-562 = assay: Inhibition of cells growth by colorimetric (SRB) assay, K-562
In short: (§1)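 Human tumour cells seeded at 5×10^3/well in RPMI 1640 10% FBS, attached 18 h, then exposed 48 h to samples at 10 to 10^−8 μg/ml in DMSO/EtOH/PBS (0.5:0.5:99). Growth read by SRB staining after TCA fixation, OD 490 nm, triplicate wells; GI, TGI and LC derived.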

A-549 = assay: Inhibition of cells growth by colorimetric (SRB) assay, A-549
In short: as §1

SK-MEL-28 = assay: Inhibition of cells growth by colorimetric (SRB) assay, SK-MEL-28
In short: as §1

HT-29 = assay: Inhibition of cells growth by colorimetric (SRB) assay, HT-29
In short: as §1

LoVo = assay: Inhibition of cells growth by colorimetric (SRB) assay, LoVo
In short: as §1

LoVo-Dox = assay: Inhibition of cells growth by colorimetric (SRB) assay, LoVo-Dox
In short: as §1

DU-145 = assay: Inhibition of cells growth by colorimetric (SRB) assay, DU-145
In short: as §1

LNCaP = assay: Inhibition of cells growth by colorimetric (SRB) assay, LNCaP
In short: as §1

SK-BR-3 = assay: Inhibition of cells growth by colorimetric (SRB) assay, SK-BR-3
In short: as §1

IGROV-1 = assay: Inhibition of cells growth by colorimetric (SRB) assay, IGROV-1
In short: as §1

IGROV-ET = assay: Inhibition of cells growth by colorimetric (SRB) assay, IGROV-ET
In short: as §1

SK-OV-3 = assay: Inhibition of cells growth by colorimetric (SRB) assay, SK-OV-3
In short: as §1

PANC-1 = assay: Inhibition of cells growth by colorimetric (SRB) assay, PANC-1
In short: as §1

[1] = Inhibition of cells growth by colorimetric (SRB) assay, HMEC1; conditions: human, HMEC1 cells, LC50 H-MEC-1, SRB assay, 48 hours exposure
HMEC1 = assay: as above; conditions: for GI50: Homo sapiens, HMEC-1, 48 h, read-out: GI50 H-MEC-1, SRB assay, 48 hours exposure; for TGI H-MEC-1: SRB assay, 48 hours exposure, in M (unit assumed)

For `Cl.Nc1nccc2c(-c3ccncn3)c3c(O)ccnc3n12` [Compound 101], the “TGI K-562” value (K-562; SRB assay, 48 hours exposure) was 1.79E−05, the GI50 (K-562; read-out: GI50 K-562, SRB assay, 48 hours exposure) was 5.55 µM and the CC50 (K-562; read-out: LC50 K-562, SRB assay, 48 hours exposure) was no less than 33.9 µM. The “TGI A-549” value (A-549; SRB assay, 48 hours exposure) was 1.09E−05, the GI50 (A-549; read-out: GI50 A-549, SRB assay, 48 hours exposure) was 2.39 µM and the CC50 (A-549; read-out: LC50 A-549, SRB assay, 48 hours exposure) was no less than 33.9 µM. The “TGI MEL-28” value (SK-MEL-28; SRB assay, 48 hours exposure) was 1.07E−05, the GI50 (SK-MEL-28; read-out: GI50 MEL-28, SRB assay, 48 hours exposure) was 5.22 µM and the CC50 (SK-MEL-28; read-out: LC50 MEL-28, SRB assay, 48 hours exposure) was 21.9 µM. For the same molecule, the “TGI HT-29” value (HT-29; SRB assay, 48 hours exposure) was 2.35E−05, the GI50 (HT-29; read-out: GI50 HT-29, SRB assay, 48 hours exposure) was 8.87 µM and the CC50 (HT-29; read-out: LC50 HT-29, SRB assay, 48 hours exposure) was no less than 33.9 µM. The “TGI LOVO” value (LoVo; SRB assay, 48 hours exposure) was 1.41E−05, the GI50 (LoVo; read-out: GI50 LOVO, SRB assay, 48 hours exposure) was 3.52 µM and the CC50 (LoVo; read-out: LC50 LOVO, SRB assay, 48 hours exposure) was no less than 33.9 µM. The “TGI LOVO-DOX” value (LoVo-Dox; SRB assay, 48 hours exposure) was 1.59E−05, the GI50 (LoVo-Dox; read-out: GI50 LOVO-DOX, SRB assay, 48 hours exposure) was 2.35 µM and the CC50 (LoVo-Dox; read-out: LC50 LOVO-DOX, SRB assay, 48 hours exposure) was no less than 33.9 µM. For the same molecule, the “TGI DU-145” value (DU-145; SRB assay, 48 hours exposure) was 1.80E−06, the GI50 (DU-145; read-out: GI50 DU-145, SRB assay, 48 hours exposure) was 0.118 µM and the CC50 (DU-145; read-out: LC50 DU-145, SRB assay, 48 hours exposure) was no less than 30.3 µM. For the same molecule, the “TGI LN-caP” value (LNCaP; SRB assay, 48 hours exposure) was 1.32E−07, the GI50 (LNCaP; read-out: GI50 LN-caP, SRB assay, 48 hours exposure) was 0.0224 µM and the CC50 (LNCaP; read-out: LC50 LN-caP, SRB assay, 48 hours exposure) was 4.74 µM. For the same molecule, the “TGI SK-BR-3” value (SK-BR-3; SRB assay, 48 hours exposure) was 8.77E−07, the GI50 (SK-BR-3; read-out: GI50 SK-BR-3, SRB assay, 48 hours exposure) was 0.128 µM and the CC50 (SK-BR-3; read-out: LC50 SK-BR-3, SRB assay, 48 hours exposure) was 10.2 µM. The “TGI IGROV” value (IGROV-1; SRB assay, 48 hours exposure) was 1.06E−05, the GI50 (IGROV-1; read-out: GI50 IGROV, SRB assay, 48 hours exposure) was 3.79 µM and the CC50 (IGROV-1; read-out: LC50 IGROV, SRB assay, 48 hours exposure) was 29.6 µM. For the same molecule, the “TGI IGROV-ET” value (IGROV-ET; SRB assay, 48 hours exposure) was 2.08E−05, the GI50 (IGROV-ET; read-out: GI50 IGROV-ET, SRB assay, 48 hours exposure) was 6.6 µM and the CC50 (IGROV-ET; read-out: LC50 IGROV-ET, SRB assay, 48 hours exposure) was no less than 33.9 µM. The “TGI SKOV-3” value (SK-OV-3; SRB assay, 48 hours exposure) was 1.41E−05, the GI50 (SK-OV-3; read-out: GI50 SKOV-3, SRB assay, 48 hours exposure) was 4.44 µM and the CC50 (SK-OV-3; read-out: LC50 SKOV-3, SRB assay, 48 hours exposure) was no less than 33.9 µM. For the same molecule, the “TGI PANC-1” value (PANC-1; SRB assay, 48 hours exposure) was 4.88E−06, the GI50 (PANC-1; read-out: GI50 PANC-1, SRB assay, 48 hours exposure) was 0.149 µM and the CC50 (PANC-1; read-out: LC50 PANC-1, SRB assay, 48 hours exposure) was no less than 33.9 µM. The CC50 at 48 h [1] was 0.0444 µM, the GI50 (HMEC1) was 0.00677 µM and the “TGI H-MEC-1” value (HMEC1) was 1.57E−08.

For `C[S+]([O-])c1nccc(-c2c3c(Cl)ccnc3n3c(N)nccc23)n1` (stereo not drawn) [Compound 110], the GI50 (K-562; Homo sapiens, K562, 48 h, read-out: GI50 K-562, SRB assay, 48 hours exposure) was 9.92 µM, the CC50 (K-562; Homo sapiens, K562, 48 h, read-out: LC50 K-562, SRB assay, 48 hours exposure) was no less than 27.9 µM and the “TGI K-562” value (K-562; SRB assay, 48 hours exposure) was 2.79E−05. For the same molecule, the GI50 (A-549; Homo sapiens, A549, 48 h, read-out: GI50 A-549, SRB assay, 48 hours exposure) was 11 µM, the CC50 (A-549; Homo sapiens, A549, 48 h, read-out: LC50 A-549, SRB assay, 48 hours exposure) was no less than 27.9 µM and the “TGI A-549” value (A-549; SRB assay, 48 hours exposure) was 2.79E−05. The GI50 (SK-MEL-28; Homo sapiens, SK-MEL-28, 48 h, read-out: GI50 MEL-28, SRB assay, 48 hours exposure) was 5.55 µM, the CC50 (SK-MEL-28; Homo sapiens, SK-MEL-28, 48 h, read-out: LC50 MEL-28, SRB assay, 48 hours exposure) was no less than 27.9 µM and the “TGI MEL-28” value (SK-MEL-28; SRB assay, 48 hours exposure) was 2.79E−05. For the same molecule, the GI50 (HT-29; Homo sapiens, HT-29, 48 h, read-out: GI50 HT-29, SRB assay, 48 hours exposure) was 4.15 µM, the CC50 (HT-29; Homo sapiens, HT-29, 48 h, read-out: LC50 HT-29, SRB assay, 48 hours exposure) was no less than 27.9 µM and the “TGI HT-29” value (HT-29; SRB assay, 48 hours exposure) was 2.79E−05. For the same molecule, the GI50 (LoVo; Homo sapiens, LoVo, 48 h, read-out: GI50 LOVO, SRB assay, 48 hours exposure) was 1.38 µM, the CC50 (LoVo; Homo sapiens, LoVo, 48 h, read-out: LC50 LOVO, SRB assay, 48 hours exposure) was no less than 27.9 µM and the “TGI LOVO” value (LoVo; SRB assay, 48 hours exposure) was 6.21E−06. The GI50 (LoVo-Dox; Homo sapiens, 48 h, read-out: GI50 LOVO-DOX, SRB assay, 48 hours exposure) was 2.04 µM, the CC50 (LoVo-Dox; Homo sapiens, 48 h, read-out: LC50 LOVO-DOX, SRB assay, 48 hours exposure) was no less than 27.9 µM and the “TGI LOVO-DOX” value (LoVo-Dox; SRB assay, 48 hours exposure) was 1.21E−05. The GI50 (DU-145; Homo sapiens, DU-145, 48 h, read-out: GI50 DU-145, SRB assay, 48 hours exposure) was 2.03 µM, the CC50 (DU-145; Homo sapiens, DU-145, 48 h, read-out: LC50 DU-145, SRB assay, 48 hours exposure) was no less than 27.9 µM and the “TGI DU-145” value (DU-145; SRB assay, 48 hours exposure) was 8.97E−06. For the same molecule, the GI50 (LNCaP; Homo sapiens, LNCaP, 48 h, read-out: GI50 LN-caP, SRB assay, 48 hours exposure) was 1.45 µM, the CC50 (LNCaP; Homo sapiens, LNCaP, 48 h, read-out: LC50 LN-caP, SRB assay, 48 hours exposure) was 16.7 µM and the “TGI LN-caP” value (LNCaP; SRB assay, 48 hours exposure) was 4.71E−06. The GI50 (SK-BR-3; Homo sapiens, SK-BR-3, 48 h, read-out: GI50 SK-BR-3, SRB assay, 48 hours exposure) was 0.92 µM, the CC50 (SK-BR-3; Homo sapiens, SK-BR-3, 48 h, read-out: LC50 SK-BR-3, SRB assay, 48 hours exposure) was 11.6 µM and the “TGI SK-BR-3” value (SK-BR-3; SRB assay, 48 hours exposure) was 1.98E−06. For the same molecule, the GI50 (IGROV-1; Homo sapiens, IGROV-1, 48 h, read-out: GI50 IGROV, SRB assay, 48 hours exposure) was 14.3 µM, the CC50 (IGROV-1; Homo sapiens, IGROV-1, 48 h, read-out: LC50 IGROV, SRB assay, 48 hours exposure) was no less than 27.9 µM and the “TGI IGROV” value (IGROV-1; SRB assay, 48 hours exposure) was 2.79E−05. For the same molecule, the GI50 (IGROV-ET; Homo sapiens, 48 h, read-out: GI50 IGROV-ET, SRB assay, 48 hours exposure) was 10.9 µM, the CC50 (IGROV-ET; Homo sapiens, 48 h, read-out: LC50 IGROV-ET, SRB assay, 48 hours exposure) was no less than 27.9 µM and the “TGI IGROV-ET” value (IGROV-ET; SRB assay, 48 hours exposure) was 2.79E−05. The GI50 (SK-OV-3; Homo sapiens, SK-OV-3, 48 h, read-out: GI50 SKOV-3, SRB assay, 48 hours exposure) was 11.9 µM, the CC50 (SK-OV-3; Homo sapiens, SK-OV-3, 48 h, read-out: LC50 SKOV-3, SRB assay, 48 hours exposure) was no less than 27.9 µM and the “TGI SKOV-3” value (SK-OV-3; SRB assay, 48 hours exposure) was 2.79E−05. For the same molecule, the GI50 (PANC-1; Homo sapiens, PANC-1, 48 h, read-out: GI50 PANC-1, SRB assay, 48 hours exposure) was 14.5 µM, the CC50 (PANC-1; Homo sapiens, PANC-1, 48 h, read-out: LC50 PANC-1, SRB assay, 48 hours exposure) was no less than 27.9 µM and the “TGI PANC-1” value (PANC-1; SRB assay, 48 hours exposure) was 2.79E−05. For the same molecule, the CC50 at 48 h [1] was no less than 27.9 µM, the GI50 (HMEC1) was 1.7 µM and the “TGI H-MEC-1” value (HMEC1) was 1.08E−05.
